Key:
Assay type in all cases: cell-based
IL8 = assay: IL-1β stimulated IL8 inhibition assay in PBMC; conditions: human PBMCs, IL-1β stimulation, compound overnight, IL8 by MSD after 24 hrs; for IC50: read-out: IL1β stim IL8 inhibition IC50; for Emax: read-out: IL1β stim IL8 inhibition Ymax
Experimental: (§1) IL-1β, LPS, or R848 Stimulated IL6 Inhibition and IL-1β Stimulated IL8 Inhibition Assay
(§2) Human PBMC cells were seeded at 2.0×10^6 cells/mL, treated with compound overnight, and dosed with the EC50 concentration of each stimulant (either IL-1B. LPS, or R848) was determined for each donor. After 24 hrs, media was collected and analyzed by MSD for IL6 and/or IL8 levels.

IL6 [1] = assay: IL-1β stimulated IL6 inhibition assay in PBMC; conditions: human PBMCs, IL-1β stimulation, compound overnight, IL6 by MSD after 24 hrs; for IC50: read-out: IL1β stim IL6 inhibition IC50; for Emax: read-out: IL1β stim IL6 inhibition Ymax
Experimental: as §1, §2

IRAK-4 [2] = target: T1, IRAK-4 (Homo sapiens, UniProt Q9NWZ3); assay: IRAK-4 ELISA, OCI-Ly10 degradation; design: endogenous in cells; conditions: treated overnight; for Dmax: OCI-Ly10, OCI-Ly10 cells; for DC50: OCI-Ly10 cells
T1 sequence (Q9NWZ3 1-460): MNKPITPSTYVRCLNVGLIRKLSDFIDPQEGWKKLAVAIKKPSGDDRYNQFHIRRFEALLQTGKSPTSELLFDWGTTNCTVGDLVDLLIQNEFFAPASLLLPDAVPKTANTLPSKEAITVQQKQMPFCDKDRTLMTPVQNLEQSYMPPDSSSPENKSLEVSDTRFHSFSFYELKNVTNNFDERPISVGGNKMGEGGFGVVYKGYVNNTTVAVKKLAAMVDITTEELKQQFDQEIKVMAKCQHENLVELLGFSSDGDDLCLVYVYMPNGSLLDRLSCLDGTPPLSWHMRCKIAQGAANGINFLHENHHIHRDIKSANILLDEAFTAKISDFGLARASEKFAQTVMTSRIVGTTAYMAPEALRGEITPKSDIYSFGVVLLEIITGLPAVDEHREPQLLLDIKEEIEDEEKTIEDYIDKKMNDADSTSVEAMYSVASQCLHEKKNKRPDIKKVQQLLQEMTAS
Experimental: Reagents: Human IRAK-4 Matched Antibody Pair Kit (Abcam ab218182) and ELISA Accessory Pack (Abcam ab210905).
Cell Treatment and Lysis:
1. OCI-Ly10: 200,000 cells are seeded at 1×10^6/ml in 96-well U-bottom plates 200 ul per well, treated with compound the same day. Incubate overnight. 2. PBMC: 800,000 cells are seeded at 2×10^6/ml in 96-well U-bottom deep-well plates, 400 ul per well, treated with compound the same day. Incubate overnight.
Cell lysate is collected and analyzed by ELISA for IRAK-4 levels.

IRAK-4 [3] = target: T1, IRAK-4; assay: IRAK-4 ELISA, PBMC degradation; design: endogenous in cells; host or cells: PBMC; conditions: treated overnight
In short: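 ELISA quantification of cellular IRAK-4 after compound treatment overnight; PBMC were plated at 2×10^6/ml, OCI-Ly10 at 1×10^6/ml.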

IL6 [4] = assay: LPS stimulated IL6 inhibition assay in PBMC; conditions: Homo sapiens, PBMC, 24 h, human PBMCs, LPS stimulation, compound overnight, IL6 by MSD after 24 hrs; for Dmax: read-out: LPS Stim IL6 inhibition Dmax; for IC50: read-out: LPS stim IL6 inhibition IC50
In short: (§3)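 Seed human PBMC, 2.0×10^6 cells/mL → compound overnight → stimulant (IL-1β, LPS or R848) at per-donor EC50 → 24 hrs → media to MSD for IL6/IL8.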

IL6 [5] = assay: R848 stimulated IL6 inhibition assay in PBMC; conditions: PBMC, human PBMCs, R848 stimulation, compound overnight, IL6 by MSD after 24 hrs; for Dmax: Homo sapiens, 24 h, read-out: R848 stim IL6 inhibition Dmax; for IC50: read-out: R848 stim IL6 inhibition IC50
In short: as §3

Row | Structure (SMILES) | IC50 (IL8) [µM] | Emax (IL8) [%] | IC50 (IL6 [1]; Homo sapiens, PBMC, 24 h) [µM] | Emax (IL6 [1]; PBMC) [%] | Dmax (IRAK-4 [2]) [%] | DC50 (IRAK-4 [2]) [µM] | DC50 (IRAK-4 [3]) [µM] | Dmax (IRAK-4 [3]) [%] | PBMC DC90 (IRAK-4 [3]) | Dmax (IL6 [4]) [%] | IC50 (IL6 [4]) [µM] | Dmax (IL6 [5]) [%] | IC50 (IL6 [5]) [µM] | IC50 (IL6 [1]) [µM]
1 | O=C1CCC(N2Cc3cc(OCCN4CCC(n5cc6cc(NC(=O)c7cnn8cccnc78)c(OCC7CC7)cc6n5)CC4)ccc3C2=O)C(=O)N1 (stereo not drawn) [Example 122] | 0.05 to 0.1 | 80 to 90 | 0.01 to 0.05 | ≥ 90 | < 70 | < 0.01 | 0.001 to 0.005 | < 70 | B (B represents a DC90 value ≥10.0 nM and <25.0 nM) | – | – | – | – | –
2 | CC(C)Oc1nc2c(cc1NC(=O)c1cnn3cccnc13)CN(C1CCN(CCc3ccc4c(c3)C(=O)N(C3CCC(=O)NC3=O)C4=O)CC1)C2=O (stereo not drawn) [Example 400] | ≥ 0.1 | – | ≥ 0.1 | ≥ 90 | – | – | 0.005 to 0.01 | 80 to 90 | D (D represents a DC90 value ≥50 nM) | – | – | – | – | –
3 | O=C1CCC(N2C(=O)c3ccc(N4CCC(CN5CCC(n6cc7cc(NC(=O)c8cnn9cc(Cl)cnc89)c(OCC8CC8)cc7n6)CC5)CC4)cc3C2=O)C(=O)N1 (stereo not drawn) [Example 128] | – | – | – | – | ≥ 90 | 0.01 to 0.05 | – | – | – | 70 to 80 | 0.01 to 0.05 | 80 to 90 | 0.01 to 0.05 | –
4 | CC(C)Oc1nc2c(cc1NC(=O)c1cnn3cccnc13)CN(C1CCN(CC3CN(c4ccc5c(c4)C(=O)N(C4CCC(=O)NC4=O)C5=O)C3)CC1)C2=O (stereo not drawn) [Example 398] | ≥ 0.1 | – | < 0.01 | ≥ 90 | – | – | < 0.001 | ≥ 90 | A (A represents a DC90 value <10.0 nM) | – | – | – | – | –
5 | O=C1CCC(N2Cc3cc(N4CC(N5CCC(n6cc7cc(NC(=O)c8cnn9cccnc89)c(OCC8CC8)cc7n6)CC5)C4)ccc3C2=O)C(=O)N1 (stereo not drawn) [Example 283] | 0.01 to 0.05 | < 70 | < 0.01 | ≥ 90 | – | – | < 0.001 | ≥ 90 | A (A represents a DC90 value <10.0 nM) | – | – | – | – | –
6 | CC(C)Oc1cc2c(cc1NC(=O)c1cnn3cccnc13)CN([C@H]1CC[C@@H](N3CCN(c4ccc5c(c4)C(=O)N(C4CCC(=O)NC4=O)C5=O)CC3)CC1)C2=O (stereo partly drawn) [Example 67] | ≥ 0.1 | ≥ 90 | 0.01 to 0.05 | ≥ 90 | – | – | 0.001 to 0.005 | ≥ 90 | C (C represents a DC90 value ≥25.0 nM and <50 nM) | – | – | – | – | –
7 | O=C1CCC(N2Cc3cc(N4CCC(CN5CCC(N6Cc7cc(NC(=O)c8cnn9cccnc89)c(OCC8CC8)cc7C6=O)CC5)CC4)ccc3C2=O)C(=O)N1 (stereo not drawn) [Example 22] | 0.01 to 0.05 | 70 to 80 | < 0.01 | ≥ 90 | – | – | < 0.001 | 80 to 90 | A (A represents a DC90 value <10.0 nM) | – | – | – | – | –
8 | CC(C)Oc1cc2c(cc1NC(=O)c1cnn3cccnc13)CN([C@H]1CCN(CC3CCN(c4ccc5c(c4)C(=O)N(C4CCC(=O)NC4=O)C5=O)CC3)C[C@@H]1F)C2=O (stereo partly drawn) [Example 91] | – | – | – | – | ≥ 90 | 0.01 to 0.05 | 0.001 to 0.005 | ≥ 90 | B (B represents a DC90 value ≥10.0 nM and <25.0 nM) | – | – | – | – | –
9 | CC(C)Oc1cc2c(cc1NC(=O)c1cnn3cccnc13)CN(C1CCN(C(C)(C)C3CCN(c4ccc5c(c4)C(=O)N(C4CCC(=O)NC4=O)C5=O)CC3)CC1)C2=O (stereo not drawn) [Example 82] | – | – | – | – | ≥ 90 | < 0.01 | < 0.001 | ≥ 90 | A (A represents a DC90 value <10.0 nM) | 70 to 80 | 0.01 to 0.05 | ≥ 90 | 0.01 to 0.05 | –
10 | CC(C)Oc1cc2c(cc1NC(=O)c1cnn3cccnc13)CN([C@H]1CC[C@H](N3CCN(c4ccc5c(c4)C(=O)N(C4CCC(=O)NC4=O)C5=O)CC3)CC1)C2=O (stereo partly drawn) [Example 66] | 0.05 to 0.1 | 70 to 80 | 0.01 to 0.05 | ≥ 90 | – | – | 0.001 to 0.005 | ≥ 90 | A (A represents a DC90 value <10.0 nM) | – | – | – | – | –
11 | O=C1CCC(N2C(=O)c3ccc(N4CCC(CN5CCC(N6Cc7cc(NC(=O)c8cnn9cccnc89)c(N8CCOCC8)cc7C6=O)CC5)CC4)cc3C2=O)C(=O)N1 (stereo not drawn) [Example 31] | – | – | – | ≥ 90 | 80 to 90 | < 0.01 | 0.001 to 0.005 | ≥ 90 | B (B represents a DC90 value ≥10.0 nM and <25.0 nM) | – | – | – | – | ≥ 0.1
12 | CC(C)Oc1cc2c(cc1NC(=O)c1cnn3cccnc13)CN(C1CCN(CC3CCN(c4ccc5c(c4)CN(C4CCC(=O)NC4=O)C5=O)CC3)CC1)C2=O (stereo not drawn) [Example 6] | 0.01 to 0.05 | 80 to 90 | < 0.01 | ≥ 90 | – | – | < 0.001 | ≥ 90 | 0.006 µM | – | – | – | – | –
13 | CN(C1CN(c2ccc3c(c2)C(=O)N(C2CCC(=O)NC2=O)C3=O)C1)[C@H]1CC[C@H](n2cc3cc(NC(=O)c4cnn5cccnc45)c(OCC4CC4)cc3n2)CC1 (stereo partly drawn) [Example 336] | 0.01 to 0.05 | 70 to 80 | < 0.01 | ≥ 90 | – | – | < 0.001 | ≥ 90 | A (A represents a DC90 value <10.0 nM) | – | – | – | – | –
14 | CC(C)Oc1cc2c(cc1NC(=O)c1cnn3cccnc13)CN(C1CCN(CC3(F)CN(c4ccc5c(c4)C(=O)N(C4CCC(=O)NC4=O)C5=O)C3)CC1)C2=O (stereo not drawn) [Example 57, N-(2-(1-((1-(2-(2,6-dioxopiperidin-3-yl)-1,3-dioxoisoindolin-5-yl)-3-fluoroazetidin-3-yl)methyl)piperidin-4-yl)-6-isopropoxy-1-oxoisoindolin-5-yl)pyrazolo[1,5-a]pyrimidine-3-carboxamide] | – | – | – | – | ≥ 90 | 0.01 to 0.05 | < 0.001 | ≥ 90 | A (A represents a DC90 value <10.0 nM) | 70 to 80 | 0.01 to 0.05 | ≥ 90 | 0.05 to 0.1 | –
15 | CC(C)Oc1cc2c(cc1NC(=O)c1cnn3cccnc13)CN(C1CCN(CC3CCN(c4cc5c(cc4F)C(=O)N(C4CCC(=O)NC4=O)C5=O)CC3)CC1)C2=O (stereo not drawn) [Example 13] | ≥ 0.1 | ≥ 90 | 0.01 to 0.05 | ≥ 90 | – | – | < 0.001 | ≥ 90 | C (C represents a DC90 value ≥25.0 nM and <50 nM) | – | – | – | – | –
16 | O=C1CCC(N2C(=O)c3ccc(N4CCC(F)(CN5CCC(N6Cc7cc(NC(=O)c8cnn9cccnc89)c(OCC8CC8)cc7C6=O)CC5)CC4)cc3C2=O)C(=O)N1 (stereo not drawn) [Example 88] | – | – | – | – | 80 to 90 | 0.05 to 0.1 | < 0.001 | ≥ 90 | A (A represents a DC90 value <10.0 nM) | 70 to 80 | 0.01 to 0.05 | – | – | –
17 | CC(C)Oc1cc2c(cc1NC(=O)c1cnn3cccnc13)CN(C1CCC(N(C)C3CN(c4ccc5c(c4)CN(C4CCC(=O)NC4=O)C5=O)C3)CC1)C2=O (stereo not drawn) [Example 314] | 0.01 to 0.05 | 70 to 80 | < 0.01 | ≥ 90 | – | – | < 0.001 | 80 to 90 | A (A represents a DC90 value <10.0 nM) | – | – | – | – | –
